Assay results from paper PMC7156412, “Inhibition of the deubiquitinase USP10 induces degradation of SYK” (British Journal of Cancer, 2020).

Experiments:
USP10 = conditions: cited from earlier work
SYK [1] = test: Immunoblot of SYK protein levels in Ba/F3-FLT3-ITD cells; type: cell-based, murine; conditions: 24 h of treatment
Description: (§1) Protein lysate preparation, immunoblotting and immunoprecipitation were carried out as previously described.[21]

FLT3 [2] = test: Immunoblot of FLT3 protein levels in Ba/F3-FLT3-ITD cells; type: cell-based, murine; conditions: for Induction of FLT3 degradation: Ba/F3-FLT3-ITD cells, 24 hr, 10-20 µM; for FLT3 protein levels: all treated oncogenic FLT3-expressing cells, 24 h
Description: as §1

SYK [3] = test: Immunoblot of SYK protein levels in PBMCs from normal donors; type: cell-based; conditions: 24 h of treatment
Description: as §1

SYK [4] = test: Immunoblot of SYK protein levels in MV4-11 cells; type: cell-based; conditions: 24 h of treatment
Description: as §1

Ba/F3-FLT3-ITD cells = system: Ba/F3-FLT3-ITD cells; set-up: method as in PMID 28967922; conditions: cited from earlier work
USP7 = conditions: cited from earlier work
[5] = system: FLT3-ITD-positive MOLM14 cells; set-up: method as in PMID 28967922; conditions: cited from earlier work
SYK [6] = test: Immunoblot of SYK in Ba/F3-FLT3-ITD+TKD point mutant cells; type: cell-based, murine; conditions: Ba/F3-FLT3-ITD+TKD point mutant cells (A627T, F691L, G697R, F691I), 24 hr, 5-10 µM
Description: as §1

FLT3 [7] = test: Immunoblot of FLT3 in Ba/F3-FLT3-ITD+TKD point mutant cells; type: cell-based, murine; conditions: Ba/F3-FLT3-ITD+TKD point mutant cells (A627T, F691L, G697R, F691I), 24 hr, 5-10 µM
Description: as §1

Sequence of SYK (P48025 whole entry): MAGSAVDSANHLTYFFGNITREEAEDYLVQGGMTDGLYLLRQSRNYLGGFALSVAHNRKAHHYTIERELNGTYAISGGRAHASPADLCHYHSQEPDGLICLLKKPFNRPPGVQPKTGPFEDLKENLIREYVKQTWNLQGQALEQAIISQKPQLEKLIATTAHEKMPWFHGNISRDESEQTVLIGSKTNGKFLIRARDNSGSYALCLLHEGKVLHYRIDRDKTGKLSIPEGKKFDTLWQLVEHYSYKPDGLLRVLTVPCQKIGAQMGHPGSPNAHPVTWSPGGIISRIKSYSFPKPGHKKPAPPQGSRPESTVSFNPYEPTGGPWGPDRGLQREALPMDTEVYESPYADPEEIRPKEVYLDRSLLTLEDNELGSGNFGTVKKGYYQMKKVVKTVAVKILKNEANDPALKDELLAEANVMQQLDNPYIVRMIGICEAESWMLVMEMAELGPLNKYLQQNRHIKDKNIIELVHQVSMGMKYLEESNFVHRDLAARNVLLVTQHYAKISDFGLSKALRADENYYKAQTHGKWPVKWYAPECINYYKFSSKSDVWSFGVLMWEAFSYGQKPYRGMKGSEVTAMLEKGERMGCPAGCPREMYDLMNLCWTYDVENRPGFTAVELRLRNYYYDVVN

CCCN(CCC)CCCNC(=O)c1ccc2c(Cl)c3c(nc2c1)CCCC3 [C598-0466]
USP10 inhibitory activity in biochemical assay (USP10; Ub-AMC as substrate, as previously determined): showing activity against USP10
Effect on SYK protein levels (SYK [1]): strongly inducing degradation of SYK protein
Induction of FLT3 degradation (FLT3 [2]): Induction of FLT3 degradation

HBX19818
Effect on SYK protein levels (SYK [3]): loss of SYK protein
Inhibition of USP10 activity (USP10): inhibit the activity
Effect on SYK protein levels (SYK [4]): downregulated
Combination effect with crenolanib or midostaurin (Ba/F3-FLT3-ITD cells): synergistic effects
Effect on SYK protein levels (SYK [1]): downregulated
Induction of FLT3 degradation (FLT3 [2]): Induction of FLT3 degradation
FLT3 protein levels (FLT3 [2]): lower
Inhibition of USP7 activity (USP7): inhibit the activity
Combination effect with crenolanib or midostaurin [5]: synergistic effects

CC(=O)c1cc([N+](=O)[O-])c(Sc2ccc(F)cc2F)s1 [P22077]
Effect on SYK protein levels (SYK [3]): loss of SYK protein
Inhibition of USP10 activity (USP10): inhibit the activity
Effect on SYK protein levels (SYK [4]): downregulated
Effect on SYK protein levels (SYK [6]): induces degradation of SYK and FLT3
Effect on SYK protein levels (SYK [1]): downregulated
Induction of FLT3 degradation (FLT3 [2]): Induction of FLT3 degradation
FLT3 protein levels (FLT3 [2]): lower
Effect on FLT3 protein levels (FLT3 [7]): induces degradation of SYK and FLT3
Inhibition of USP7 activity (USP7): inhibit the activity
